How the values were obtained:
[1] = system: HCV Genotype 1A Replicon; test: Replicon assay, genotype 1a subgenomic replicon, luciferase readout; assay type: cell-based; conditions: Hepatitis C virus, 48 h, Table 3; luciferase activity after 48 hours
Procedure, shortened: (§1)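 EC50 values came from four-parameter logistic fits of 10-point dose responses (3–4-fold steps, final 0.03–50 μM, 0.5–1% DMSO), normalized against no-compound and no-cell controls. Firefly luciferase was read 48 h after plating 0.5×10^4 replicon cells/well, 1b ET or 1a Apath-derived line.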

[2] = system: HCV Genotype 1B Replicon; test: Replicon assay, genotype 1b subgenomic replicon (ET cell line), luciferase readout; assay type: cell-based; conditions: Hepatitis C virus, 48 h, Table 3; luciferase activity after 48 hours
Procedure, shortened: as §1

| SMILES | EC50 [1] [nM] | EC50 [2] [nM] |
| --- | --- | --- |
| O=C(c1nc2c(C(F)(F)F)cc(C3CCCC3)cn2c1Cl)N1CCC(N2CCOC2=O)CC1 [Compound 127, 3-(1-{[3-chloro-6-cyclopentyl-8-(trifluoromethyl)imidazo[1,2-a]pyridin-2-yl]carbonyl}-4-piperidinyl)-1,3-oxazolidin-2-one] | 10 | 170 |
| C[C@H]1OC(=O)N(C2CCN(C(=O)c3nc4c(C(F)(F)F)cc(Br)cn4c3Cl)CC2)C1=O [Compound 193, (5R)-3-(1-{[6-bromo-3-chloro-8-(trifluoromethyl)imidazo[1,2-a]pyridin-2-yl]carbonyl}-4-piperidinyl)-5-methyl-1,3-oxazolidine-2,4-dione] | 770 | 90 |
| N#Cc1c(C(=O)N2CCC(N3CCOC3=O)CC2)nc2c(C(F)(F)F)cc(-c3ccoc3)cn12 [Compound 160, 6-(3-furanyl)-2-{[4-(2-oxo-1,3-oxazolidin-3-yl)-1-piperidinyl]carbonyl}-8-(trifluoromethyl)imidazo[1,2-a]pyridine-3-carbonitrile] | 10 | 10 |
| O=C(c1nc2c(C(F)(F)F)cc(-c3ccoc3)cn2c1Cl)N1CCC(n2cn[nH]c2=O)CC1 [Compound 199, 4-(1-{[3-chloro-6-(3-furanyl)-8-(trifluoromethyl)imidazo[1,2-a]pyridin-2-yl]carbonyl}-4-piperidinyl)-2,4-dihydro-3H-1,2,4-triazol-3-one] | 4790 | 5370 |
| O=C1CN(C2CCN(C(=O)c3nc4c(C(F)(F)F)cc(-c5cn[nH]c5)cn4c3Cl)CC2)C(=O)N1 [Compound 172, 1-(1-{[3-chloro-6-(1H-pyrazol-4-yl)-8-(trifluoromethyl)imidazo[1,2-a]pyridin-2-yl]carbonyl}-4-piperidinyl)-2,4-imidazolidinedione] | 3210 | 3760 |
| Cc1ccc(-c2cc(C(F)(F)F)c3nc(C(=O)N4CCC(N5CCOC5=O)CC4)c(Cl)n3c2)o1 [Compound 133] | 110 | 3720 |
| O=C(c1nc2c(C(F)(F)F)cccn2c1Cl)N1CCC(N2CCOC2=O)CC1 [Compound 111, 3-(1-{[3-chloro-8-(trifluoromethyl)imidazo[1,2-a]pyridin-2-yl]carbonyl}-4-piperidinyl)-1,3-oxazolidin-2-one] | ≥ 5010 | 11800 |
| O=C(c1nc2c(C(F)(F)F)cc(-c3cccc(O)c3)cn2c1Cl)N1CCC(N2CCOC2=O)CC1 [Compound 122] | 2340 | 15800 |
| O=C(c1nc2c(C(F)(F)F)cc(Br)cn2c1Cl)N1CC[C@H](N2CCOC2=O)[C@H](O)C1 (racemic) [Compound 233, (±) cis-3-(1-{[6-bromo-3-chloro-8-(trifluoromethyl)imidazo[1,2-a]pyridin-2-yl]carbonyl}-3-hydroxy-4-piperidinyl)-1,3-oxazolidin-2-one] | 110 | 180 |
| CCC(C)c1cc(C(F)(F)F)c2nc(C(=O)N3CCC(N4CCOC4=O)CC3)c(Cl)n2c1 (stereo not drawn) [Compound 141, 3-(1-{[3-chloro-6-(1-methylpropyl)-8-(trifluoromethyl)imidazo[1,2-a]pyridin-2-yl]carbonyl}-4-piperidinyl)-1,3-oxazolidin-2-one] | 160 | 550 |
| O=C(c1nc2c(C(F)(F)F)cc(-c3ccoc3)cn2c1Cl)N1CC[C@H](N2CCCC2=O)[C@@H](O)C1 (racemic) [Compound 227, (±) trans-1-(1-{[3-chloro-6-(3-furanyl)-8-(trifluoromethyl)imidazo[1,2-a]pyridin-2-yl]carbonyl}-3-hydroxy-4-piperidinyl)-2-pyrrolidinone] | 690 | 340 |
| O=C(c1nc2c(C(F)(F)F)cc(-c3cn[nH]c3)cn2c1Cl)N1CCC(N2C(=O)CNC2=O)CC1 [Compound 174, 3-(1-{[3-chloro-6-(1H-pyrazol-4-yl)-8-(trifluoromethyl)imidazo[1,2-a]pyridin-2-yl]carbonyl}-4-piperidinyl)-2,4-imidazolidinedione] | 25100 | 2290 |
